Assays:
[1] = biological target: T1, AP-1 complex (Fos/Jun peptide) (Homo sapiens, UniProt P01100+P05412); experiment: Effect on AP-1 binding activity to AP-1 recognition sequence (ELISA); conditions: inhibition of binding of digoxigenin-labeled AP-1 binding sequence oligonucleotide to Fos/Jun peptide, absorbance 492 nm, read-out: Concentration (μM) at 50% inhibition
T1 construct: made in house; host or cells: chemical peptide synthesis (no expression host)
Method: Test Example 1 Effect on AP-1 Binding Activity to AP-1 Recognition Sequence (ELISA)
Jun peptide and Fos peptide with its N-terminal labeled with biotin via 4 glycine residues containing a DNA binding site [Nature, Vol. 373, 1995, 257-261] were synthesized. Each of the peptides was dissolved in Tris buffer [20 mM Tris-hydrochloric acid (pH 7.5), 50 mM potassium chloride, 1 mM ethylenediaminetetraacetic acid, 10 mM magnesium chloride, 1 mM dithiothreitol, 0.5 M guanidinohydrochloric acid, 30% glycerol], and equimolar amounts of the peptide solutions were mixed with each other to be used as an AP-1 complex (Fos/Jun peptide). The AP-1 complex was added onto a 96-well avidin-coated ELISA plate (10 pmol/well). The plate was washed, blocked by bovine serum albumin, and used for binding assay.
Digoxigenin-labeled double-stranded oligonucleotide (22mer) that contained AP-1 binding sequence (3′-TGAGTCA-5′) synthesized by conventional procedure was reacted in binding reaction solution [25 mM tris-hydrochloric acid (pH 7.9), 0.5 mM ethylenediaminetetraacetic acid, 0.05% Nonidet P-40, 10% glycerol] for 30 minutes at room temperature in the presence or absence of samples. After the reaction, unbound labeled oligonucleotide was removed by washing with HEPES buffer containing 0.05% Tween-20. Then peroxidase-labeled anti-digoxigenin antibody was added to react with the labeled oligonucleotide bound to AP-1. After removing excess antibody by washing with HEPES buffer containing 0.05% Tween-20, incubation was conducted for a certain period with o-phenylene diamine as a substrate in 100 mM citric acid buffer (pH 5.0) containing hydrogen peroxide, sulfuric acid solution was added to each well, and the absorbance (492 nm) was measured. Inhibition rate of each sample was calculated from the absorbance obtained in the binding assay carried out in the presence of the sample, taking the absorbance obtained in the absence of the sample=100%.

[2] = tested on: Male DBA/1J mice; experiment: Type II collagen-induced arthritis in mouse; assay type: in vivo; conditions: 10 mg/kg orally once a day from 21 to 35 days after the initial inoculation, vs control group; for Bone destruction inhibition rate: X-ray bone destruction score 36 days after initial inoculation; for Arthritis inhibition rate: arthritis score on 36 days after initial inoculation
Method: Test Example 2 Type II Collagen-Induced Arthritis in Mouse
Male DBA/1J mice aged 8 weeks (Charles River Japan) were used. To a solution of 2 mg/mL bovine type II collagen in 0.1 mol/L acetic acid (Koken), an […] of Freund's complete adjuvant (DIFCO) was added to prepare an emulsion, and 0.2 ml of the emulsion was subcutaneously injected in the tail root region of each mouse. The same treatment was given 21 days after the initial inoculation to induce arthritis in the mice. Test compounds were each suspended in 0.5% methylcellulose solution, and 10 mg/kg of each test compound was given orally to mice once a day from 21 to 35 days after the initial inoculation. To a control group (a negative control group), 0.5% methylcellulose solution was given in the same manner.
Taking the maximum score as 12, the arthritis score was calculated to evaluate the severity of arthritis that was evaluated in the following manner: score 0: no change; score 1: swelling on one or two toes, or slight swelling in the carpal and tarsal joints; score 2: swelling and rubor in more joints; score 3: extensive swelling over whole foreleg or hindleg; and total of the four legs was calculated.
X-ray photographs of four paws were taken 36 days after the initial inoculation, and the severity of bone destruction was evaluated as bone destruction score on a maximum scale, the sum of the points for extremities, of 105 points: 0 or 0.5 points in accordance with presence or absence of osteoporosis in the joints and their vicinity, and for bone erosion, no change at 0 point; “partial bone destruction” at 1 point and “complete bone destruction” at 2 points in the second to fifth interdigital joints, the first to fifth metacarpal and metatarsal joints, and carpal, tarsal and calcaneal regions. Inhibition rate was calculated using the following equation: Inhibition rate(%)=100−(score of the group given the test compound/score of the control group)×100

T1 sequence (P01100 137-200 limits assumed): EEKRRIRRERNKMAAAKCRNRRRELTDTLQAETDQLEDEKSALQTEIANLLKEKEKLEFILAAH
T1 sequence (P05412 252-315 limits assumed): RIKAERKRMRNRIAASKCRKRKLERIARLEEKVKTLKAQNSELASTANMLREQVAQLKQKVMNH

Row | Compound | IC50 [1] [µM] | Bone destruction inhibition rate [2] [%] | Arthritis inhibition rate [2] [%]
1 | O=C(O)CCc1cc(C(=O)c2ccc(C3CCCC3)cc2O)ccc1OCc1ccc(C(=O)O)cc1 [49(39)] | 360 | – | –
2 | O=C(O)CCc1cc(C(=O)c2ccc(OC3CCCC3)cc2O)ccc1OCc1ccc(C(=O)O)cc1 [Example 44, 4-({2-(2-carboxyethyl)-4-[4-(cyclopentyloxy)-2-hydroxybenzoyl]phenoxy}methyl) benzoic acid] | 420 | – | –
3 | CC(C)COc1ccc(C(=O)c2ccc(OCc3ccc(C(=O)NS(C)(=O)=O)cc3)c(CCC(=O)O)c2)c(O)c1 [49(8)] | 320 | – | –
4 | COc1cc(COc2ccc(C(=O)c3ccc(OC4CCCC4)cc3O)cc2CCC(=O)O)ccc1C(=O)O [Example 48, 4-({2-(2-carboxyethyl)-4-[4-(cyclopentyloxy)-2-hydroxybenzoyl]phenoxy}methyl)-2-methoxybenzoic acid] | 700 | 64 | 57
5 | CC(C)COc1ccc(C(=O)c2ccc(OCc3ccc(C(=O)O)cc3)c(CCC(=O)O)c2)c(OCC(C)C)c1 [49(9)] | 490 | – | –
6 | O=C(CCc1cc(C(=O)c2ccc(OC3CCCC3)cc2O)ccc1OCc1ccc2c(O)noc2c1)OCCN1CCOCC1 [Example 76, 2-(4-morpholinyl) ethyl 3-{5-[4-(cyclopentyloxy)-2-hydroxybenzoyl]-2-[(3-hydroxy-1,2-benzisoxazol-6-yl)methoxy]phenyl} propanoate] | – | 99 | 90
7 | CC(C)COc1cc(COc2ccc(C(=O)c3ccc(OC4CCCC4)cc3O)cc2CCC(=O)O)ccc1C(=O)O [49(46)] | 320 | – | –
8 | O=C(O)CCc1cc(C(=O)c2ccc(OC3CCCC3)cc2O)ccc1OCc1nc2cc(C(=O)O)ccc2s1 [49(77)] | 380 | – | –
9 | O=C(O)/C=C/c1ccc(COc2ccc(C(=O)c3ccc(OC4CCCC4)cc3O)cc2CCC(=O)O)cc1 [Example 46, (E)-3-(4-{[4-[4-(cyclopentyloxy)-2-hydroxybenzoyl]-2-(3-hydroxy-3-oxopropyl)phenoxy]methyl}phenyl)-2-propenoic acid] | 330 | – | –
10 | CC(C)COc1ccc(C(=O)c2ccc(OCc3ccc(C(=O)O)cc3)c(CCC(=O)O)c2)c(O)c1 [49(47)] | 460 | – | –
11 | O=C(O)CCc1cc(C(=O)c2ccc(OC3CCCCC3)cc2O)ccc1OCc1ccc(C(=O)O)cc1 [49(20)] | 320 | – | –
12 | CN1CCN(c2ccc(COc3ccc(C(=O)c4ccc(OC5CCCC5)cc4O)cc3CCC(=O)O)cc2)C(=O)C1=O [49(76)] | 380 | – | –
13 | CCOC(=O)CCc1cc(C(=O)c2ccc(OCC(C)C)cc2O)ccc1OCc1ccc(C(=O)O)cc1 [72(1), 4-{[2-(3-ethoxy-3-oxopropyl)-4-(2-hydroxy-4-isobutoxybenzoyl)phenoxy]methyl} benzoic acid] | 240 | – | –
14 | COc1cc(COc2ccc(C(=O)c3ccc(OC4CCCC4)cc3O)cc2CCC(=O)O)ccc1CCC(=O)O [49(11)] | 390 | – | –
15 | O=C(O)CCc1cc(C(=O)c2ccc(-c3cccs3)cc2O)ccc1OCc1ccc(C(=O)O)cc1 [49(16)] | 380 | – | –
16 | CCOC(=O)c1ccc(COc2ccc(C(=O)c3ccc(OC4CCCC4)cc3O)cc2CCC(=O)O)cc1OC [54(2), 3-(5-[4-(cyclopentyloxy)-2-hydroxybenzoyl]-2-{[4-(ethoxycarbonyl)-3-methoxybenzyl]oxy}phenyl) propanoic acid] | – | 78 | 65
17 | O=C(O)CCc1ccc(COc2ccc(C(=O)c3ccc(OC4CCCC4)cc3O)cc2CCC(=O)O)cc1 [49(1)] | 330 | – | –
18 | CC(Oc1ccc(C(=O)c2ccc(OC3CCCC3)cc2O)cc1CCC(=O)O)c1ccc(C(=O)O)cc1 (centres unmarked) [49(12)] | 700 | 76 | 50
19 | CS(=O)(=O)NC(=O)c1ccc(COc2ccc(C(=O)c3ccc(OC4CCCC4)cc3O)cc2CCC(=O)O)cc1 [49(62)] | 580 | – | –

Further lines, with some results ahead:

Row | IC50 [1] [µM] | Compound | Bone destruction inhibition rate [2] [%] | Arthritis inhibition rate [2] [%]
20 | 130 | O=C(O)CCc1cc(C(=O)c2ccc(OCC3CCCCC3)cc2O)ccc1OCc1ccc(C(=O)O)cc1 [49(56)] | – | –
21 | 240 | Cc1cc(C(=O)O)ccc1COc1ccc(C(=O)c2ccc(OC3CCCC3)cc2O)cc1CCC(=O)O [49(3)] | – | –
22 | 140 | O=C(O)CCc1cc(C(=O)c2ccc(OC3CCCC3)cc2O)ccc1OCc1csc2c(C(=O)O)cccc12 [Example 45, 3-({2-(2-carboxyethyl)-4-[4-(cyclopentyloxy)-2-hydroxybenzoyl]phenoxy}methyl)-1-benzothiophene-7-carboxilic acid] | 81 | 55
23 | 200 | O=C(O)CCc1cc(C(=O)c2ccc(CC3CCCC3)cc2O)ccc1OCc1ccc(C(=O)O)cc1 [49(22)] | – | –
24 | 280 | CC(C)(C)COc1ccc(C(=O)c2ccc(OCc3ccc(C(=O)O)cc3)c(CCC(=O)O)c2)c(O)c1 [49(19)] | – | –
25 | 180 | O=C(O)CCc1cc(C(=O)c2ccc(OC3CCCC3)cc2O)ccc1OCc1ccc2[nH]c(=O)[nH]c(=O)c2c1 [49(70)] | – | –
26 | 300 | O=C(O)CCc1cc(C(=O)c2ccc(OC3CCCC3)cc2O)ccc1OCc1ccc(C(=O)O)cc1F [49(51)] | – | –
27 | 220 | O=C(O)CCc1cc(C(=O)c2ccc(OCC3CCCC3)cc2O)ccc1OCc1ccc(C(=O)O)cc1 [49(29)] | – | –
28 | 280 | O=C(O)CCc1cc(C(=O)c2ccc(OCc3ccco3)cc2O)ccc1OCc1ccc(C(=O)O)cc1 [49(40)] | – | –
29 | 310 | CC(C)COc1ccc(C(=O)c2ccc(OCc3ccc(C(=O)NO)cc3)c(CCC(=O)O)c2)c(O)c1 [49(48)] | – | –
30 | 170 | O=C(O)CCc1cc(C(=O)c2ccc(OC3CCCC3)cc2O)ccc1OCc1ccc(-c2cc(O)no2)cc1 [Example 47, 3-(5-[4-(cyclopentyloxy)-2-hydroxybenzoyl]-2-{[4-(3-hydroxy-5-isoxazolyl)benzyl]oxy}phenyl) propanoic acid] | – | –
31 | 190 | O=C(O)CCc1cc(C(=O)c2ccc(OC3CCCCCC3)cc2O)ccc1OCc1ccc(C(=O)O)cc1 [49(58)] | – | –
32 | 310 | O=C(O)CCc1cc(C(=O)c2ccc(OC3CCCC3)cc2O)ccc1OCc1ccc(C(=O)O)cc1O [32(1), 4-({2-(2-carboxyethyl)-4-[4-(cyclopentyloxy)-2-hydroxybenzoyl]phenoxy}methyl)-3-hydroxybenzoic acid] | – | –
33 | 290 | O=C(O)CCc1cc(C(=O)c2ccc(OC3CCCC3)cc2O)ccc1OCc1ccc2c(O)noc2c1 [Example 35, 3-{5-[4-(cyclopentyloxy)-2-hydroxybenzoyl]-2-[(3-hydroxyl-1,2-benzisoxazol-6-yl)methoxy]phenyl}propanoic acid] | 92 | 76
34 | 270 | O=C(O)CCc1cc(C(=O)c2ccc(OC3CCCC3)cc2O)ccc1OCc1ccc(S(=O)(=O)O)cc1 [49(54)] | – | –

From patent US7772285B2, “Benzophenone derivatives or salts thereof” (Toyama Chemical Co., Ltd., priority 2001, dated 2010)
